Patent US20240317735A1, “HYDROISOQUINOLINE OR HYDRONAPHTHYRIDINE COMPOUNDS FOR THE TREATMENT OF AUTOIMMUNE DISEASE” (Hoffmann-La Roche Inc., priority 2020, published 2024)

Tests used:
[1] = Human microsome stability assay; type: in vitro ADME; conditions: for Clearance of Human microsome: 1 μM test compound, 0.5 mg/mL liver microsomal protein, 37° C., pH 7.4; for human liver microsome stability (in words): qualitative statement
Description: The human microsomal stability assay is used for early assessment of metabolic stability of a test compound in human liver microsomes.
Human liver microsomes (Cat. NO.: 452117, Corning, USA; Cat. NO.: H2610, Xenotech, USA) were preincubated with test compound for 10 minutes at 37° C. in 100 mM potassium phosphate buffer, pH 7.4. The reactions were initiated by adding NADPH regenerating system. The final incubation mixtures contained 1 μM test compound, 0.5 mg/mL liver microsomal protein, 1 mM MgCl2, 1 mM NADP, 1 unit/mL isocitric dehydrogenase and 6 mM isocitric acid in 100 mM potassium phosphate buffer, pH 7.4. After incubation times of 0, 3, 6, 9, 15 and 30 minutes at 37° C., 300 μL of cold acetonitrile (including internal standard) was added to 100 μL incubation mixture to terminate the reaction. Following precipitation and centrifugation, the amount of compound remaining in the samples were determined by LC-MS/MS. Controls of no NADPH regenerating system at zero and 30 minutes were also prepared and analyzed.

TLR9 = biological target: T1, TLR9 (Homo sapiens, UniProt Q9NR96); conditions: qualitative statement on compounds of WO2018047081; cited from earlier work
T1 sequence (Q9NR96 26-1032): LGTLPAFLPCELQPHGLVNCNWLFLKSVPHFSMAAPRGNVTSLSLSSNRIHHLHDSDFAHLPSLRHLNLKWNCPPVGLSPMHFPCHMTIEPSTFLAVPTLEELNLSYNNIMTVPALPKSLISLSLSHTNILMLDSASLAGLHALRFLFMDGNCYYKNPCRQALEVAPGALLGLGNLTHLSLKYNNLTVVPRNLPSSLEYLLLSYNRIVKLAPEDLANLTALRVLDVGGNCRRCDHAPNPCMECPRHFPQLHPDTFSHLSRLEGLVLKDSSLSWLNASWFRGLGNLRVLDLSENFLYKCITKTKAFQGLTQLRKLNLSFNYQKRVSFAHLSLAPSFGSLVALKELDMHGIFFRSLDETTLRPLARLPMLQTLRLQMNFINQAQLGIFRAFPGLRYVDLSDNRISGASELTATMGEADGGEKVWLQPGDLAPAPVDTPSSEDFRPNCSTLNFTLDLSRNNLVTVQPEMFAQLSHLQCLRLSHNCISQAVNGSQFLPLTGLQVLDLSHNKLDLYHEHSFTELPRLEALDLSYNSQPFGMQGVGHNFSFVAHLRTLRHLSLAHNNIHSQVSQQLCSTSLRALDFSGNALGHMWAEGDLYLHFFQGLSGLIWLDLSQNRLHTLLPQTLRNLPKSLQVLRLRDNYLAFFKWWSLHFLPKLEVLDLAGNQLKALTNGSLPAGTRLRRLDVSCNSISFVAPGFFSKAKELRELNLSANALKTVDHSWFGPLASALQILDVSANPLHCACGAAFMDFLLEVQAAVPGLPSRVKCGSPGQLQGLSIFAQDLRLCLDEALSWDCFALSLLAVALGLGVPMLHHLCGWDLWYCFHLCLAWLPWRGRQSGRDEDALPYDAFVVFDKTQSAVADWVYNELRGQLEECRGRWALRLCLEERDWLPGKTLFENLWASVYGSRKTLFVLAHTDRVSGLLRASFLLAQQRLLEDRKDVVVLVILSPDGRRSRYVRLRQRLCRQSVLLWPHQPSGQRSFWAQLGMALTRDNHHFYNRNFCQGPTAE

Row | SMILES | Clearance of Human microsome [1] [mL/min/kg] | human liver microsome stability (in words) [1] | TLR9 activity (in words) (TLR9)
1 | C[C@H]1CN(c2ccnc3c2cnn3C)Cc2ccc(N3C[C@@H](N)[C@](C)(O)C3)cc21 [Example 36, (3R,4R)-4-amino-3-methyl-1-[(4R)-4-methyl-2-(1-methylpyrazolo[3,4-b]pyridin-4-yl)-3,4-dihydro-1H-isoquinolin-6-yl]pyrrolidin-3-ol] | 6.2 |  | 
2 | C[C@H]1CN(c2ccnc3c2cnn3C)Cc2ccc(N3CC[N+](C)(C)CC3)cc21.[Cl-] [Example 39, (4R)-6-(4,4-dimethylpiperazin-4-ium-1-yl)-4-methyl-2-(1-methylpyrazolo[3,4-b]pyridin-4-yl)-3,4-dihydro-1H-isoquinoline chloride] | 6.2 |  | 
3 | Cc1cc(N2CCc3c(c(C)nn3CC34CCC(NC(=O)[C@@H]5COCCN5)(CC3)CC4)C2)c2cnn(C)c2n1 [Example N8, reference compound] | 16.3 | poor human liver microsome stability | much lower TLR9 activity
4 | Cc1cc(N2CCc3c(c(C)nn3CC34CCC(N(C)C5CCC5)(CC3)CC4)C2)c2cnn(C)c2n1 [Example N79, reference compound] | 18.2 | poor human liver microsome stability | best TLR9 activity
